Measured values published in patent US4559323A, “A41030 Antibiotics” (Eli Lilly and Company, priority 1984, dated 1985).
Read-outs that look alike come from different tables or passages of the source.

Tests used:
Clostridium difficile = format: cell-based
Excerpt: The A41030 antibiotic factors A, B, C, D, E, F, and G, are also active against a number of strains of Clostridium difficile, as determined by the agar-dilution method.

B. thetaiotaomicron = format: cell-based; conditions: Table 14; Bacteroides thetalotaomicron 1438
Excerpt: (§1) The agar-dilution procedure described by the International Collaborative study (ICS) group was used to determine the minimum inhibitory concentrations (MIC's).

[1] = test system: Bacteroides melaninogenicus; assay: Agar-dilution MIC (anaerobes); format: cell-based; conditions: Table 14; Bacteroides melaninogenicus 2736
Clostridium septicum = assay: Agar-dilution MIC (anaerobes); format: cell-based; conditions: Table 14; Clostridium septicum 1128
Clostridium perfringens = format: cell-based; conditions: Table 14; Clostridium perfringens 81
Solubility in solvents = format: physicochemical; conditions: solvents as named
Excerpt: The seven antibiotic factors are recovered from the fermentation and are obtained as a mixture, the A41030 complex. It will be recognized that the ratio of the factors in the A41030 complex will vary, depending upon the fermentation conditions used. The individual factors […], and G are separated and isolated as individual compounds, as hereinafter described.

Fusobacterium symbiosum = assay: Agar-dilution MIC (anaerobes); format: cell-based; conditions: Table 14; Fusobacterium symbiosum 1470
Salmonella typhi = assay: Agar-dilution MIC; format: cell-based; conditions: Table 17, 24 hours
Staphylococcus aureus = assay: Agar-dilution MIC; format: cell-based; conditions: Table 17, 24 hours
Bacteroides fragilis = assay: Agar-dilution MIC (anaerobes); format: cell-based; conditions: Table 14
Excerpt: as §1

Bacteroides corrodens = assay: Agar-dilution MIC (anaerobes); format: cell-based; conditions: Table 14; Bacteroides corrodens 1874
[2] = test system: Peptococcus asaccharolyticus; assay: Agar-dilution MIC (anaerobes); format: cell-based; conditions: Table 14; Peptococcus asaccharolyticus 1302
Bacteroides vulgatis = assay: Agar-dilution MIC (anaerobes); format: cell-based; conditions: Table 14; Bacteroides vulgatis 1211
[3] = test system: Peptostreptococcus anaerobius; assay: Agar-dilution MIC (anaerobes); format: cell-based; conditions: Table 14; Peptostreptococcus anaerobius 1428
S. pyogenes = assay: Experimental bacterial infection in mice, subcutaneous ED50; format: in vivo; conditions: two doses subcutaneously
Experimental: (§2) All of the A41030 factors tested have shown in vivo antimicrobial activity against experimental bacterial infections. When two doses of test compound were administered subcutaneously to mice in illustrative infections, the activity observed is measured as an ED50 value [effective dose in mg./kg. to protect fifty percent of the test animals: See Warren Wick, et al., J. Bacteriol. 81, 233-235 (1961)].

Staph. aureus = assay: as above; format: in vivo; conditions: two doses subcutaneously
Experimental: as §2

S. pneumoniae = assay: as above; format: in vivo; conditions: two doses subcutaneously
Experimental: as §2

Eubacterium aerofaciens = assay: Agar-dilution MIC (anaerobes); format: cell-based; conditions: Table 14; Eubacterium aerofaciens 1235
Peptococcus prevoti = assay: Agar-dilution MIC (anaerobes); format: cell-based; conditions: Table 14; Peptococcus prevoti 1281
[4] = test system: Peptostreptococcus intermedius; assay: Agar-dilution MIC (anaerobes); format: cell-based; conditions: Table 14; Peptostreptococcus intermedius 1264
[5] = test system: Fusobacterium necrophorum; assay: Agar-dilution MIC (anaerobes); format: cell-based; conditions: Table 14; Fusobacterium necrophorum 6054A
Propionibacterium acnes = assay: Agar-dilution MIC (anaerobes); format: cell-based; conditions: Table 14; Propionibacterium acnes 79
Excerpt: Antibiotic A41030 factors A, B and C have also been tested and found to be active against a genus of anaerobic bacteria identified as Propionibacterium acnes.

Hemophilus influenzae = assay: Agar-dilution MIC; format: cell-based; conditions: Table 17, 24 hours
[6] = Electrometric titration (pKa); format: physicochemical; conditions: electrometric titration in 66% dimethylformamide in water
Streptococcus pyogenes = assay: Agar-dilution MIC; format: cell-based; conditions: Table 17; 24 hours; Streptococcus pyogenes C203
Excerpt: as §1

Streptococcus pneumoniae = assay: Agar-dilution MIC; format: cell-based; conditions: Table 17; 24 hours; Streptococcus pneumoniae Park I
Excerpt: as §1

[7] = test system: Staphylococcus epidermidis; assay: Agar-dilution MIC; format: cell-based; conditions: Table 17; 24 hours; Staphylococcus epidermidis EPI1
Excerpt: as §1

[8] = test system: Streptococcus sp. (Group D); assay: Agar-dilution MIC; format: cell-based; conditions: Table 17, 24 hours
Excerpt: as §1

## A41030 factor F
Clostridium difficile
  MIC: 1 µg/mL
Clostridium difficile; Table 16, C. difficile 78
  MIC: 1.0 µg/mL
Clostridium difficile; Table 16, C. difficile 107B
  MIC: 1.0 µg/mL
Clostridium difficile; Table 16, C. difficile 111F
  MIC: 2 µg/mL
Clostridium difficile; Table 16, C. difficile 1153
  MIC: 2 µg/mL
Clostridium difficile; Table 16, C. difficile 2634
  MIC: 2 µg/mL
Clostridium difficile; Table 16, C. difficile 3424-5B
  MIC: 1.0 µg/mL
Clostridium difficile; Table 16, C. difficile 3816
  MIC: 1.0 µg/mL
Clostridium difficile; Table 16, C. difficile 3950
  MIC: 1.0 µg/mL
Clostridium difficile; Table 16, C. difficile 6890
  MIC: 1.0 µg/mL
Clostridium difficile; Table 16, C. difficile 8484
  MIC: 1.0 µg/mL
Clostridium difficile; Table 16, C. difficile A-194
  MIC: 1.0 µg/mL
Clostridium difficile; Table 16, C. difficile A-195
  MIC: 1.0 µg/mL
Clostridium difficile; Table 16, C. difficile A-196
  MIC: 2 µg/mL
Clostridium difficile; Table 16, C. difficile A-279
  MIC: 1.0 µg/mL
Clostridium difficile; Table 16, C. difficile A-280
  MIC: 1.0 µg/mL
Clostridium difficile; Table 16, C. difficile A-281
  MIC: 2 µg/mL
Clostridium difficile; Table 16, C. difficile WAL-2112
  MIC: 1.0 µg/mL
Clostridium difficile; Table 16, C. difficile WAL-3657
  MIC: 1.0 µg/mL
Clostridium difficile; Table 16, C. difficile WAL-4268
  MIC: 1.0 µg/mL
B. thetaiotaomicron
  MIC: 64 µg/mL
[1]
  MIC: 1.0 µg/mL
Clostridium septicum
  MIC: 1.0 µg/mL
Clostridium perfringens
  MIC: 1.0 µg/mL
Solubility in solvents
  Solubility: soluble in the same solvents as factor A
Fusobacterium symbiosum
  MIC: 1.0 µg/mL
Salmonella typhi; Salmonella typhi 1335
  MIC: > 128 µg/mL
Salmonella typhi; Salmonella typhi X514
  MIC: > 128 µg/mL
Staphylococcus aureus; Staphylococcus aureus 3055
  MIC: 0.5 µg/mL
Staphylococcus aureus; Staphylococcus aureus S13E
  MIC: 1 µg/mL
Staphylococcus aureus; Staphylococcus aureus V41
  MIC: 0.5 µg/mL
Staphylococcus aureus; Staphylococcus aureus X400
  MIC: 1 µg/mL
Bacteroides fragilis; Bacteroides fragilis 111
  MIC: 32 µg/mL
Bacteroides fragilis; Bacteroides fragilis 1877
  MIC: 32 µg/mL
Bacteroides fragilis; Bacteroides fragilis 1936B
  MIC: 32 µg/mL
Bacteroides corrodens
  MIC: 32 µg/mL
[2]
  MIC: ≤ 0.25 µg/mL
Bacteroides vulgatis
  MIC: 32 µg/mL
[3]
  MIC: 32 µg/mL
S. pyogenes
  ED50: > 5.0 mg/kg
Staph. aureus
  ED50: < 0.31 mg/kg
S. pneumoniae
  ED50: > 5.0 mg/kg
Eubacterium aerofaciens
  MIC: 1.0 µg/mL
Peptococcus prevoti
  MIC: 32 µg/mL
[4]
  MIC: 1.0 µg/mL
[5]
  MIC: 1.0 µg/mL
Propionibacterium acnes
  MIC: 1.0 µg/mL
Hemophilus influenzae; Haemophilus influenzae 76
  MIC: 32 µg/mL
Hemophilus influenzae; Haemophilus influenzae C.L.
  MIC: 32 µg/mL
[6]
  pKa, first titratable group: about 5.4
  pKa, second titratable group: ~7.1
Streptococcus pyogenes
  MIC: 2 µg/mL
Streptococcus pneumoniae
  MIC: 2 µg/mL
[7]
  MIC: 0.25 µg/mL
[8]; Streptococcus sp. Group D 9960
  MIC: 4 µg/mL
[8]; Streptococcus sp. Group D X66
  MIC: 4 µg/mL
